Patent US20030065039A1, “Biologically active 1,3-bis-aromatic-prop-2-en-1-ones, 1,3-bis-aromatic-propan-1-ones, and 1,3-bis-aromatic-prop-2-yn-1-ones” (Statens Serum Institute, priority 1997, published 2003)
Read-outs that look alike come from different tables or passages of the source.

Assays:
Assay type in all cases: cell-based
TNF-α = TNF-α production by human peripheral blood mononuclear cells, culture supernatant (ELISA)
Protocol: Cells: Peripheral blood mononuclear cells obtained from healthy individuals. The cells were separated by a conventional method lymphoprep) and suspended in RMPI 1640 containing 5% human serum.
Stimulation of cytokine-release from human mononuclear cells: Human peripheral blood mononuclear cells from Danish donors were suspended in 1-10% (v/v) human serum in RPMI 1640 and adjusted to 2×10^6 cells per ml. 0.1 ml volumes were then dispensed into wells of 96-well microtiter plates. […] In some experiments cells were preincubated with drugs for 2 hrs before addition of stimulation antigens. The cultures were incubated overnight for TNF-α and IL-6 assays.
Supernatants were collected and assayed for TNF-α, IL-1α and IL-6 by ELISA procedures (Jakobsen et al., 1993, Fomsgaard et al., 1988, Hansen et al., 1991) with the following modifications. ELISA Maxisorp plates (Nunc, Roskilde, Denmark) were coated for 24 hrs at 4 C with 100 μl per well of 2.5 μg/ml rabbit polyclonal IgG to human recombinant TNF, IL-1α or IL-6 in 100 mM sodiumhydrogencarbonate. Non-attached sites were blocked for 1 h by 200 μl per well of 2% human serum slbumin in PBS (1 h at 37° C.), and the wells were washed 4 times in 2.5% NaCl, 0.1% Tween 20 (Merck, Darmstadt, Germany). This washing procedure was done after each of the following incubating steps:
1) 100 μl culture supernatants made to 50% (v/v) in incubation buffer (4% (v/v) normal rabbit serum, DAKO code X902), 1% polyethylene glycol (MW 6,000), 2.5% NaCl, 0.1% Tween 20 in phosphate buffered saline (PBS) were incubated 2 hrs at 37° C., dilutions of native as well as recombinant cytokine standards in the same incubation buffer were asssayed in parallel with the tested supernatants,
2) 100 μl per well of biotinilated rabbit antibodies to recombinant TNF-α, IL-1α or IL-6 (1.5 μg/ml in 0.5% human serum albumin, 0.1% Tween 20 in PBS) were added at 37° for 2 hrs,
3) […] per well of a 1:1000 dilution of streptavidin-peroxidase (Amersham, UK), at room temperature for 30 min.
Enzyme activities were quantitated after addition of 100 μl per well of 0.67 mg/ml 1,2-phenyldiamine hydrochloride (DAKO) dissolved in 100 mM citric acid-phosphate buffer, pH 5.0 containing 0.015% (v/v) H2O2. The reactions were stopped by adding 50 μl per well of 2.5 M H2SO4, and the optical densities are measured in an ELISA scanner at 490 nm against a test reference at 620 nm.
Assay: The compounds were prepared as stock solution at a concentration of 1 mg/ml in medium containing 10% DMSO. The dilutions were made in medium. The cells were stimulated with either SPAG (a malaria antigen TNF-inducer) or bacterial LPS. The supernatant of cell cultures were assayed for TNF-α using a commercial ELISA kit.

Leishmania promastigotes = Leishmania promastigotes Assay; conditions: promastigotes, 3H-thymidine uptake, read-out: Leishmania IC50 ± SD
In short: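 L. major (WHO Iran vaccine strain) and L. donovani MHOM/KE/85/NLB 274 promastigotes (3×10^6/ml, day 3 and 6 cultures) exposed to compound 2 h at 26 °C, then 3H-thymidine 18 h; incorporation counted by scintillation. Microscopic counts and flagellar motility also assessed.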

human lymphocytes = assay: Lymphocyte Proliferation Assay; conditions: PHA provoked proliferation of human lymphocytes, read-out: Lymphocytes IC50 ± SD
In short: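 Ficoll-isolated human blood mononuclear cells (0.63×10^5/ml) in RPMI 1640 with 5% FCS were cultured in triplicate with test compound and PHA or PPD for 3 or 7 days. Proliferation measured by ^3H-thymidine incorporation over the final 24 h; triplicate median recorded.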

[1] = Experiment 1, LPS, 12.5 μg/ml, Control 1.17
[2] = Experiment 1, LPS, 25 μg/ml, Control 1.17
[3] = Experiment 1, LPS, 50 μg/ml, Control 1.17
[4] = Experiment 1, LPS, 100 μg/ml, Control 1.17
[5] = Experiment 1, SPAG, 12.5 μg/ml, Control 3.73
[6] = Experiment 1, SPAG, 25 μg/ml, Control 3.73
[7] = Experiment 1, SPAG, 50 μg/ml, Control 3.73
[8] = Experiment 1, SPAG, 100 μg/ml, Control 3.73
[9] = Experiment 2, LPS, 1.562 μg/ml, Control 2.06
[10] = Experiment 2, LPS, 3.125 μg/ml, Control 2.06
[11] = Experiment 2, LPS, 6.25 μg/ml, Control 2.06
[12] = Experiment 2, LPS, 12.5 μg/ml, Control 2.06
[13] = Experiment 2, SPAG, 1.562 μg/ml, Control 2.28
[14] = Experiment 2, SPAG, 3.125 μg/ml, Control 2.28
[15] = Experiment 2, SPAG, 6.25 μg/ml, Control 2.28
[16] = Experiment 2, SPAG, 12.5 μg/ml, Control 2.28

SMILES | TNF-α production (OD values) (TNF-α; [1]) [OD] | TNF-α production (OD values) (TNF-α; [2]) [OD] | TNF-α production (OD values) (TNF-α; [3]) [OD] | TNF-α production (OD values) (TNF-α; [4]) [OD] | TNF-α production (OD values) (TNF-α; [5]) [OD] | TNF-α production (OD values) (TNF-α; [6]) [OD] | TNF-α production (OD values) (TNF-α; [7]) [OD] | TNF-α production (OD values) (TNF-α; [8]) [OD] | TNF-α production (OD values) (TNF-α; [9]) [OD] | TNF-α production (OD values) (TNF-α; [10]) [OD] | TNF-α production (OD values) (TNF-α; [11]) [OD] | TNF-α production (OD values) (TNF-α; [12]) [OD] | TNF-α production (OD values) (TNF-α; [13]) [OD] | TNF-α production (OD values) (TNF-α; [14]) [OD] | TNF-α production (OD values) (TNF-α; [15]) [OD] | TNF-α production (OD values) (TNF-α; [16]) [OD] | IC50 (Leishmania promastigotes; Leishmania) [µM] | IC50 (human lymphocytes; Lymphocyte) [µM] | also measured
C=CC(C)(C)c1cc(/C=C/C(=O)c2ccc(O)cc2)c(OC)cc1O [Licochalcone A] |  |  |  |  |  |  |  |  |  |  |  |  |  |  |  |  |  |  | percentage inhibition of TNF-α production (TNF-α; Table 1, LPS 1:1000, drug 1 μg/ml): 0%; percentage inhibition of TNF-α production (TNF-α; Table 1, LPS 1:1000, drug 5 μg/ml): 0%; percentage inhibition of TNF-α production (TNF-α; Table 1, LPS 1:1000, drug 10 μg/ml): 40%; percentage inhibition of TNF-α production (TNF-α; Table 1, LPS 1:1000, drug 20 μg/ml, preincubated 2 hrs): 81%; percentage inhibition of TNF-α production (TNF-α; Table 1, SPAG 1:12.5, drug 1 μg/ml): 0%; percentage inhibition of TNF-α production (TNF-α; Table 1, SPAG 1:12.5, drug 5 μg/ml): 13%; percentage inhibition of TNF-α production (TNF-α; Table 1, SPAG 1:12.5, drug 10 μg/ml): 44%; percentage inhibition of TNF-α production (TNF-α; Table 1, SPAG 1:12.5, drug 20 μg/ml, preincubated 2 hrs): 97%; percentage inhibition of TNF-α production (TNF-α; Table 2, LPS 1:1000, drug 1.25 μg/ml): 4%; percentage inhibition of TNF-α production (TNF-α; Table 2, LPS 1:1000, drug 6.25 μg/ml): 3%; percentage inhibition of TNF-α production (TNF-α; Table 2, LPS 1:1000, drug 12.5 μg/ml): 38%; percentage inhibition of TNF-α production (TNF-α; Table 2, LPS 1:1000, drug 20 μg/ml, preincubated 2 hours): 54%; percentage inhibition of TNF-α production (TNF-α; Table 2, SPAG 1:12.5, drug 1.25 μg/ml): 54%; percentage inhibition of TNF-α production (TNF-α; Table 2, SPAG 1:12.5, drug 6.25 μg/ml): 82%; percentage inhibition of TNF-α production (TNF-α; Table 2, SPAG 1:12.5, drug 12.5 μg/ml): 94%; percentage inhibition of TNF-α production (TNF-α; Table 2, SPAG 1:12.5, drug 20 μg/ml, preincubated 2 hours): 100%; IC50 (Leishmania promastigotes): 13 ± 1 µM; IC50 (human lymphocytes): 48 ± 5 µM
COc1cc(/C=C/C(=O)c2ccc(C3CCCCC3)cc2)cc(OC)c1 [PH104, 3,5-dimethoxy-4′-cyclohexylchalcone] | 1.15 | 0.59 | 0.41 | 0.31 | 0.93 | 0.13 | 0.03 | 0.01 | 1.54 | 1.41 | 1.08 | 0.91 | 2.47 | 2.44 | 1.50 | 0.43 | 31 ± 2 | 39 ± 2 | inhibition at 12.5 µg/mL (TNF-α; Homo sapiens, PBMC, concentration of 12.5 μg/ml, read-out: inhibition of the production of TNF-α): ~75%; inhibition of the production of TNF-α (TNF-α; at higher concentrations than 12.5 μg/ml): greater than 75%
COc1cc(/C=C/C(=O)c2ccc([N+](=O)[O-])cc2)cc(OC)c1 [PH105, 4′-nitro-3,5-dimethoxychalcone] | 1.07 | 1.13 | 1.69 | 0.99 | 1.94 | 2.00 | 4.00 | 2.3 |  |  |  |  |  |  |  |  | 16 ± 1 | 20 ± 1 | inhibitory effect on TNF-α production (TNF-α): no or very little inhibitory effect
COc1cc(/C=C/C(=O)c2ccccc2F)cc(OC)c1 [PH135, 2′-fluoro-3,5-dimethoxychalcone] | 0.01 | 0.01 | 0.01 | 0.02 | 0.02 | 0.01 | 0.01 | 0.01 | 0.89 | 0.49 | 0.09 | 0.04 | 0.93 | 0.04 | 0.03 | 0.01 | 3.5 ± 0.8 | 6 ± 0.4 | 
COc1cc(/C=C/C(=O)c2cccc(F)c2)cc(OC)c1 [PH136, 3′-fluoro-3,5-dimethoxychalcone] | 0.00 | 0.00 | 0.00 | 0.01 | 0.01 | 0.00 | 0.01 | 0.00 | 1.70 | 1.81 | 2.18 | 0.08 | 3.29 | 4.00 | 1.39 | 0.02 | 5.5 ± 0.3 | 9.2 ± 0.5 | 
